“And” between values parts separate entries of the source, which are not always exact repeats. Equal entries are not always repeated. Where two headings read alike, the source gives them in different places.
Assays:
M1 receptor [1] = biological target: T1, M1 receptor (Homo sapiens, UniProt P11229); assay: cAMP dynamic 2 assay measuring Gs activation in CHO-M1 (control); type: cell-based
T1 construct: host or cells: CHO-k1
T1 sequence (P11229 1-460): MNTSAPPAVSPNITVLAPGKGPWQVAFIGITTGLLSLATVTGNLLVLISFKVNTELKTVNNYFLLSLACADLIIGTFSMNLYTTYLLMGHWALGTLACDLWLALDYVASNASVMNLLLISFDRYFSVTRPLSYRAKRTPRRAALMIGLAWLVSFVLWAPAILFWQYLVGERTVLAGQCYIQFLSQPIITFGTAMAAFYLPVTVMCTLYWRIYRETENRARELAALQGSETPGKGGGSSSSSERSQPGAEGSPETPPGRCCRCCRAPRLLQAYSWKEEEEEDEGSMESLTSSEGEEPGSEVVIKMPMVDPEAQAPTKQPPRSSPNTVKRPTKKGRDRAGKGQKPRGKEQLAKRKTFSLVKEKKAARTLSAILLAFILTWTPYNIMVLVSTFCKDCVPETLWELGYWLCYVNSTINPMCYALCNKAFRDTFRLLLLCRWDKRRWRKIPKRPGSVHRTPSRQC
Procedure: (§1) The cAMP assay was performed as described in the work by Thomsen et al.[28] with few modifications. Breifly, CHO-139 and CHO-M1 was detached and resuspended to a concentration of 1 million cells/mL. 5 μL 2x concentrated compound (for Gs: +100 μM IBMX and for Gi: +100 μM IBMX +10 μM forskolin (Fsk)) and 5 μL cell suspension (5,000 cells/well) was mixed. The plate was sealed and incubated at room temperature for 30 min. Next, 10 μL detection reagents (lysis buffer containing 2.5% Eu^3+-anti-cAMP antibody and 2.5% cAMP-d2) was added and the plate was incubated for 1 hour at room temperature. The plate was read on an Envision (PerkinElmer, Waltham, MA, USA). The TR-FRET 665 nm/615 nm ratio, which is inversely proportional with the cAMP production, was used to determination the concentration of the cAMP response. […]
(§2) Supplementary Figure 1. cAMP dynamic 2 assay measuring Gs activation. 5,000 cells/well of CHO-139 (pink bars) or CHO-M1 (blue bars) cells are
(§3) incubated with the indicated compounds for 30 min at room temperature in the presence of 50 µM IBMX. 5 µM and 10 µM forskolin (Fsk) serves as positive
(§4) controls. The responses are one representative out of at two independent experiments performed in triplicates. Data points are means ± SD. […]
(§5) Data points are means ± SD.

GPR139 [2] = biological target: T2, GPR139 (Homo sapiens, UniProt Q6DWJ6); assay: cAMP dynamic 2 assay measuring Gi activation (forskolin) in CHO-139; type: cell-based; details: for Inhibition of the cAMP response induced by 5 μM forskolin (Gi), in words: CHO-139
T2 sequence (Q6DWJ6 1-353): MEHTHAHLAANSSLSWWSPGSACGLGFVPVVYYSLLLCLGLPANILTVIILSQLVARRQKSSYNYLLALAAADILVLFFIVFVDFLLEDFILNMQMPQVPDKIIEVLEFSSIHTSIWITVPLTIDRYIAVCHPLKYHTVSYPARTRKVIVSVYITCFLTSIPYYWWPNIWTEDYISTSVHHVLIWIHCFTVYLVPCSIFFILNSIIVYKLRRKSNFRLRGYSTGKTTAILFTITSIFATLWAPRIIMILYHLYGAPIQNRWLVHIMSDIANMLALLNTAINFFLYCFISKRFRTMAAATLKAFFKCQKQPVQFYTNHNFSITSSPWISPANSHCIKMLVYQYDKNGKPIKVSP
Procedure: as §1
(§6) Supplementary Figure 2. cAMP dynamic 2 assay measuring Gi activation. 5,000 cells/well of CHO-139 (pink bars) or CHO-M1 (blue bars) cells are
(§7) incubated with the indicated compounds for 30 min at room temperature in the presence of 50 µM IBMX and 5 uM Fsk (expect “buffer (-Fsk) where only 50
(§8) µM IBMX is present). The straight line indicate the level of cAMP upon activation with 5 uM Fsk, and the grey area ±10% of the response. The responses are
(§9) one representative out of at two independent experiments performed in triplicates. Data points are means ± SD.

[3] = not told; cited from earlier work
GPR139 [4] = biological target: T2, GPR139; set-up: method as in ref 13, 14 (Dvorak et al.); details: relative to L-Trp; 14 (Dvorak et al.); cited from earlier work
M1 receptor [5] = biological target: T1, M1 receptor; assay: IP-One HTRF assay in CHO-M1 (control); type: cell-based
Procedure: (§10) Figure 3 IP-One HTRF® assay measuring Gq activation. Concentration-response curves of 1a, 7c (racemic), L-Trp, L-Phe, DL43, DL126, DL24, DL22, DL132 and DL130 on (A) CHO-139 and (B) CHO-M1 in the IP-One assay (final conc of LiCl = 20 mM). The dotted line represent the [IP1] response from (A) 10 μM 1a and (B) 1 μM carbachol, which is an agonist for the muscarinic acethylcholine receptor M1 that activates the Gq coupled pathway. The graphs are means ± SEM based on three independent experiments performed in triplicates.
(§11) The IP-One assay was performed as described in the work by Thomsen et al.[28], with few modifications. Breifly, CHO-139 and CHO-M1 were detached and re-suspended to a concentration of 10 million cells/mL. 5 μL 2x concentrated compound (+40 mM LiCl) and 5 μL cell suspension (50,000 cells/well) was mixed. The plate was sealed and incubated at 37 °C for 1 hour. Next, 10 μL detection reagents (lysis buffer containing 2.5% Eu^3+-anti-IP1 antibody and 2.5% IP1-d2) was added and the plate was incubated for 1 hour at room temperature. The plate was read on an Envision (PerkinElmer, Waltham, MA, USA). The time resolved-fluorescence resonance energy transfer (TR-FRET) 665 nm/615 nm ratio, which is inversely proportional to the inositol monophosphate (IP1) accumulation, was used to determine the concentration of the IP1 response.

GPR139 [6] = biological target: T2, GPR139; assay: cAMP dynamic 2 assay measuring Gs activation in CHO-139; type: cell-based
Procedure: as §1, §2, §3, §4, §5

[7] = in vivo; cited from earlier work
GPR139 [8] = biological target: T2, GPR139; assay: IP-One HTRF assay measuring Gq activation in CHO-139; type: cell-based; details: for EC50: IP-One HTRF assay, CHO-139, 20 mM LiCl
Procedure: as §10, §11

GPR139 [9] = biological target: T2, GPR139; set-up: method as in ref 11 (Shi et al.); details: ref 11 (Shi et al.), cited from earlier work; for EC50: GPR139 agonist potency
GPR139 [10] = biological target: T2, GPR139; assay: GPR139 agonist potency, data from Shi et al. (Lundbeck series); type: cell-based
[11] = in vivo; cited from earlier work; remark: listed apart in the source
GPR139 [12] = biological target: T2, GPR139; assay: GPR139 agonist potency, data from Dvorak et al. (Janssen R&D series); type: cell-based
GPR139 [13] = biological target: T2, GPR139; set-up: method as in ref 6, 13 (Liu et al.); details: calcium mobilization in HEK293; 13 (Liu et al.); cited from earlier work
GPR139 [14] = biological target: T2, GPR139; set-up: method as in ref 6, 13 (Liu et al.); details: [35S]GTPγS binding, membranes from COS7 cells; 13 (Liu et al.); cited from earlier work
GPR139 [15] = biological target: T2, GPR139; set-up: method as in ref 6, 13 (Liu et al.); details: concentration-dependent calcium response in HEK293 cells; 13 (Liu et al.); cited from earlier work
GPR139 [16] = biological target: T2, GPR139; set-up: method as in PMID 24826842; details: GPR139 activation; cited from earlier work
M1 receptor [17] = biological target: T1, M1 receptor; assay: cAMP dynamic 2 assay measuring Gi activation (forskolin) in CHO-M1 (control); type: cell-based; details: CHO-M1, high concentrations; unspecific response
Procedure: as §1, §6, §7, §8, §9

GPR139 [18] = biological target: T2, GPR139; set-up: method as in ref 15 (Hitchcock et al.); details: ref 15 (Hitchcock et al.); cited from earlier work

In the case of `C[C@H](NC(=O)CNC(=O)c1cccc(Cl)c1)c1ccccc1` (racemic) [7c], the “Gs response (cAMP)” value (M1 receptor [1]) is given as “None of the tested compounds induced Gs response”, the “Inhibition of the cAMP response induced by 5 μM forskolin (Gi), in words” value (“Inhibition of the cAMP response induced” for short) (GPR139 [2]) is given as “none of the tested compounds were able to inhibit the cAMP response” and the efflux potential [3] is given as “no efflux potential”. The Emax (GPR139 [4]) was 138%, the “IP1 response in CHO-M1 cells” value (M1 receptor [5]) was “no response is seen in CHO-M1 cells” and the “Gs response (cAMP)” value (GPR139 [6]) was “None of the tested compounds induced Gs response”. For the same molecule, the “brain to plasma ratio” value [7] was 1.2.

With `COc1cc(OC)cc(C(=O)NNC(=O)Nc2cccc3ccccc23)c1` [1a] the “Gs response (cAMP)” value (M1 receptor [1]) was “None of the tested compounds induced Gs response”, the EC50 (GPR139 [8]) was 1.05 µM and the “Inhibition of the cAMP response induced” value (GPR139 [2]) was “none of the tested compounds were able to inhibit the cAMP response”. For the same molecule, the Emax (GPR139 [9]) was 100%, the “IP1 response in CHO-M1 cells” value (M1 receptor [5]) was “no response is seen in CHO-M1 cells” and the “Gs response (cAMP)” value (GPR139 [6]) was “None of the tested compounds induced Gs response”.

For `COc1ccccc1C(=O)NNC(=O)Nc1cccc2ccccc12` [1c], the EC50 (GPR139 [9]) is given as 0.62 µM, the Emax (GPR139 [9]) is given as 79% and the “fold reduction of potency vs. 1a” value (GPR139 [10]) is given as ~ 16 fold.

In the case of `COc1cccc(C(=O)NNC(=O)Nc2cccc3ccccc23)c1` [1f], the EC50 (GPR139 [9]) is listed as 1 µM, the Emax (GPR139 [9]) is listed as 100% and the “fold reduction of potency vs. 1a” value (GPR139 [10]) is listed as ~ 26 fold.

In the case of `COc1cc(OC)cc(C(=O)NNC(=O)Cc2cccc3ccccc23)c1` [1s], the brain exposure [11] is listed as “failed to increase brain exposure due to low plasma levels”, the EC50 (GPR139 [9]) is listed as 0.088 µM and the Emax (GPR139 [9]) is listed as 95%. The “fold reduction of potency vs. 1a” value (GPR139 [10]) was 2 fold and ~ 2.4 fold.

In the case of `C[C@H](NC(=O)CNC(=O)c1ccccc1Cl)c1ccccc1` [7b], the “fold reduction of potency vs. 7c” value (GPR139 [12]) is listed as ~ 3 fold and the Emax (GPR139 [4]) is listed as 120%.

In the case of `N[C@@H](Cc1ccccc1)C(=O)O` [L-Phe, L-Phenylalanine], the “Gs response (cAMP)” value (M1 receptor [1]) is listed as “None of the tested compounds induced Gs response”, the EC50 (GPR139 [13]) is listed as 411 µM and the EC50 (GPR139 [8]) is listed as 4450 µM. For the same molecule, the “Inhibition of the cAMP response induced” value (GPR139 [2]) was “none of the tested compounds were able to inhibit the cAMP response”, the EC50 (GPR139 [14]) was 31 µM and the “IP1 response in CHO-M1 cells” value (M1 receptor [5]) was “no response is seen in CHO-M1 cells”. For the same molecule, the “Gs response (cAMP)” value (GPR139 [6]) was “None of the tested compounds induced Gs response”, the EC50 (GPR139 [15]) was 60 µM and the EC50 (GPR139 [16]) was 320 µM.

For `N[C@@H](Cc1c[nH]c2ccccc12)C(=O)O` [L-Trp, L-Tryptophan], the “Gs response (cAMP)” value (M1 receptor [1]) is given as “None of the tested compounds induced Gs response”, the EC50 (GPR139 [13]) is given as 287 µM and the EC50 (GPR139 [8]) is given as ~8500 µM. The agonist type (GPR139 [8]; IP-One assay, compared to compound 1a) was “super-agonists”, the “Inhibition of the 5 μM forskolin induced cAMP response” value (GPR139 [2]; CHO-139, high concentrations) was “more than 10%” and the EC50 (GPR139 [14]) was 26 µM. The “IP1 response in CHO-M1 cells” value (M1 receptor [5]) was “no response is seen in CHO-M1 cells”, the “Gs response (cAMP)” value (GPR139 [6]) was “None of the tested compounds induced Gs response” and the EC50 (GPR139 [15]) was 49 µM. For the same molecule, the EC50 (GPR139 [16]) was 220 µM and the “Inhibition of the 5 μM forskolin induced cAMP response” value (M1 receptor [17]) was “more than 10%”.

For `COc1ccc(C(C)NC(=O)Cn2nnc3cc(C)ccc3c2=O)cc1` (centres unmarked) [compound 35], the EC50 (GPR139 [18]) is given as 0.042 µM.

For `COc1ccc(C(C)NC(=O)Cn2nnc3cc(OC)ccc3c2=O)cc1` (centres unmarked) [compound 37], the EC50 (GPR139 [18]) is listed as 0.037 µM.
